Data from US6737383B1, “Herbicidal oxadiazolidines” (priority 1999, dated 2004).

Key:
bedstraw = assay: Test B pre/postemergence bedstraw; format: in vivo, Galium aparine
How it was run: (§1)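 Herbicidal effect was estimated by eye on a ten-point control scale after plants spent twelve to sixteen days in a greenhouse following soil or foliar treatment. Foliar sprays targeted plants at one to four leaves; all doses were formulated in a non-phytotoxic solvent with surfactant.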

blackgrass = assay: Test B pre/postemergence blackgrass; format: in vivo, Alopecurus myosuroides
How it was run: as §1

surinam grass = assay: Test B pre/postemergence surinam grass; format: in vivo, Brachiaria decumbens
How it was run: as §1

cocklebur = assay: Test B pre/postemergence cocklebur; format: in vivo, Xanthium strumarium
How it was run: as §1

corn = assay: Test B pre/postemergence corn; format: in vivo, Zea mays
How it was run: as §1

crabgrass = assay: Test B pre/postemergence crabgrass; format: in vivo, Digitaria sanguinalis
How it was run: as §1

giant foxtail = assay: Test B pre/postemergence giant foxtail; format: in vivo, Setaria faberii
How it was run: as §1

morningglory = assay: Test B pre/postemergence morningglory; format: in vivo, Ipomoea hederacea
How it was run: as §1

pigweed = assay: Test B pre/postemergence pigweed; format: in vivo, Amaranthus retroflexus
How it was run: as §1

rape = assay: Test B pre/postemergence rape; format: in vivo, Brassica napus
How it was run: as §1

soybean = assay: Test B pre/postemergence soybean; format: in vivo, Glycine max
How it was run: as §1

sugar beet = assay: Test B pre/postemergence sugar beet; format: in vivo, Beta vulgaris
How it was run: as §1

velvetleaf = assay: Test B pre/postemergence velvetleaf; format: in vivo, Abutilon theophrasti
How it was run: as §1

wheat = assay: Test B pre/postemergence wheat; format: in vivo, Triticum aestivum
How it was run: as §1

wild oat = assay: Test B pre/postemergence wild oat; format: in vivo, Avena fatua
How it was run: as §1

purple nutsedge = assay: Test B pre/postemergence purple nutsedge; format: in vivo, Cyperus rotundus
How it was run: as §1

[1] = Postemergence, Rate 62 g/ha, scale of 0 to 10, 0 is no effect, 10 is complete control
[2] = Preemergence, Rate 62 g/ha, scale 0 to 10 (0 no effect, 10 complete control)
[3] = Preemergence, Rate 125 g/ha, scale 0 to 10, 0 is no effect, 10 is complete control
[4] = Preemergence, Rate 500 g/ha, scale of 0 to 10 where 0 is no effect and 10 is complete control
[5] = Rate 250 g/ha, Postemergence, scale of 0 to 10 where 0 is no effect and 10 is complete control
[6] = Postemergence, Rate 125 g/ha, scale 0 to 10, 0 is no effect, 10 is complete control
[7] = Postemergence, Rate 500 g/ha, scale of 0 to 10 where 0 is no effect and 10 is complete control

SMILES: CCCCCn1c(=O)on(C(=O)N(c2ccccc2)C(C)C)c1=O [Compound 557]
- Bedstraw plant response rating (bedstraw; [1]): 0
- Bedstraw plant response rating (bedstraw; [2]): 0
- Bedstraw plant response rating (bedstraw; [3]): 0
- Bedstraw plant response rating (0 to 10 scale) (bedstraw; Preemergence, Rate 250 g/ha): 0
- Bedstraw plant response rating (bedstraw; [4]): 0
- Plant response rating, Bedstraw (bedstraw; [5]): 0
- Blackgrass plant response rating (blackgrass; [1]): 0
- Blackgrass plant response rating (blackgrass; [6]): 0
- Plant response rating, Blackgrass (blackgrass; [7]): 0
- Blackgrass plant response rating (blackgrass; [2]): 6
- Blackgrass plant response rating (blackgrass; [3]): 6
- Blackgrass plant response rating (0 to 10 scale) (blackgrass; Preemergence, Rate 250 g/ha): 8
- Blackgrass plant response rating (blackgrass; [4]): 8
- Plant response rating, Blackgrass (blackgrass; [5]): 0
- B. signalgrass plant response rating (surinam grass; [1]): 0
- B. signalgrass plant response rating (surinam grass; [6]): 2
- Plant response rating, B. signalgrass (surinam grass; [7]): 2
- B. signalgrass plant response rating (surinam grass; [2]): 4
- B. signalgrass plant response rating (surinam grass; [3]): 6
- B. signalgrass plant response rating (0 to 10 scale, 0 is no effect, 10 is complete control) (surinam grass; Preemergence, Rate 250 g/ha): 7
- B. signalgrass plant response rating (surinam grass; [4]): 7
- Plant response rating, B. signalgrass (surinam grass; [5]): 2
- Cocklebur plant response rating (cocklebur; [1]): 0
- Cocklebur plant response rating (cocklebur; [6]): 0
- Plant response rating, Cocklebur (cocklebur; [7]): 0
- Cocklebur plant response rating (cocklebur; [2]): 0
- Cocklebur plant response rating (cocklebur; [3]): 0
- Cocklebur plant response rating (0 to 10 scale) (cocklebur; Preemergence, Rate 250 g/ha): 0
- Cocklebur plant response rating (cocklebur; [4]): 0
- Plant response rating, Cocklebur (cocklebur; [5]): 0
- Corn plant response rating (corn; [1]): 0
- Corn plant response rating (corn; [6]): 0
- Plant response rating, Corn (corn; [7]): 2
- Corn plant response rating (corn; [2]): 0
- Corn plant response rating (corn; [3]): 0
- Corn plant response rating (0 to 10 scale) (corn; Preemergence, Rate 250 g/ha): 0
- Corn plant response rating (corn; [4]): 0
- Plant response rating, Corn (corn; [5]): 0
- Crabgrass plant response rating (crabgrass; [1]): 0
- Crabgrass plant response rating (crabgrass; [6]): 5
- Plant response rating, Crabgrass (crabgrass; [7]): 4
- Crabgrass plant response rating (crabgrass; [2]): 9
- Crabgrass plant response rating (crabgrass; [3]): 9
- Crabgrass plant response rating (0 to 10 scale) (crabgrass; Preemergence, Rate 250 g/ha): 10
- Crabgrass plant response rating (crabgrass; [4]): 10
- Plant response rating, Crabgrass (crabgrass; [5]): 4
- Giant foxtail plant response rating (giant foxtail; [1]): 0
- Giant foxtail plant response rating (giant foxtail; [6]): 6
- Plant response rating, Giant foxtail (giant foxtail; [7]): 6
- Giant foxtail plant response rating (giant foxtail; [2]): 9
- Giant foxtail plant response rating (giant foxtail; [3]): 9
- Giant foxtail plant response rating (0 to 10 scale) (giant foxtail; Preemergence, Rate 250 g/ha): 10
- Giant foxtail plant response rating (giant foxtail; [4]): 10
- Plant response rating, Giant foxtail (giant foxtail; [5]): 6
- Morningglory plant response rating (morningglory; [1]): 5
- Morningglory plant response rating (morningglory; [6]): 8
- Plant response rating, Morningglory (morningglory; [7]): 8
- Morningglory plant response rating (morningglory; [2]): 0
- Morningglory plant response rating (morningglory; [3]): 0
- Morningglory plant response rating (0 to 10 scale) (morningglory; Preemergence, Rate 250 g/ha): 0
- Morningglory plant response rating (morningglory; [4]): 0
- Redroot pigweed plant response rating (pigweed; [1]): 0
- Plant response rating, Redroot pigweed (pigweed; [7]): 0
- Redroot pigweed plant response rating (pigweed; [2]): 0
- Redroot pigweed plant response rating (pigweed; [3]): 0
- Redroot pigweed plant response rating (0 to 10 scale) (pigweed; Preemergence, Rate 250 g/ha): 3
- Redroot pigweed plant response rating (pigweed; [4]): 6
- Plant response rating, Redroot pigweed (pigweed; [5]): 0
- Rape plant response rating (rape; [1]): 0
- Rape plant response rating (rape; [6]): 0
- Plant response rating, Rape (rape; [7]): 0
- Rape plant response rating (rape; [2]): 0
- Rape plant response rating (rape; [3]): 0
- Rape plant response rating (0 to 10 scale) (rape; Preemergence, Rate 250 g/ha): 0
- Rape plant response rating (rape; [4]): 2
- Plant response rating, Rape (rape; [5]): 0
- Soybean plant response rating (soybean; [1]): 0
- Plant response rating, Soybean (soybean; [7]): 2
- Soybean plant response rating (soybean; [2]): 0
- Soybean plant response rating (soybean; [3]): 0
- Soybean plant response rating (0 to 10 scale) (soybean; Preemergence, Rate 250 g/ha): 0
- Soybean plant response rating (soybean; [4]): 0
- Plant response rating, Soybean (soybean; [5]): 0
- Sugarbeets plant response rating (sugar beet; [1]): 0
- Plant response rating, Sugarbeets (sugar beet; [7]): 0
- Sugarbeets plant response rating (sugar beet; [2]): 2
- Sugarbeets plant response rating (sugar beet; [3]): 3
- Sugarbeets plant response rating (0 to 10 scale) (sugar beet; Preemergence, Rate 250 g/ha): 3
- Sugarbeets plant response rating (sugar beet; [4]): 4
- Plant response rating, Sugarbeets (sugar beet; [5]): 0
- Velvetleaf plant response rating (velvetleaf; [1]): 0
- Plant response rating, Velvetleaf (velvetleaf; [7]): 2
- Velvetleaf plant response rating (velvetleaf; [2]): 0
- Velvetleaf plant response rating (velvetleaf; [3]): 0
- Velvetleaf plant response rating (0 to 10 scale) (velvetleaf; Preemergence, Rate 250 g/ha): 0
- Velvetleaf plant response rating (velvetleaf; [4]): 0
- Plant response rating, Velvetleaf (velvetleaf; [5]): 0
- Wheat plant response rating (wheat; [1]): 0
- Plant response rating, Wheat (wheat; [7]): 0
- Wheat plant response rating (wheat; [2]): 0
- Wheat plant response rating (wheat; [3]): 0
- Wheat plant response rating (0 to 10 scale) (wheat; Preemergence, Rate 250 g/ha): 0
- Wheat plant response rating (wheat; [4]): 3
- Plant response rating, Wheat (wheat; [5]): 0
- Wild oats plant response rating (wild oat; [1]): 0
- Plant response rating, Wild oats (wild oat; [7]): 0
- Wild oats plant response rating (wild oat; [2]): 0
- Wild oats plant response rating (wild oat; [3]): 2
- Wild oats plant response rating (0 to 10 scale) (wild oat; Preemergence, Rate 250 g/ha): 0
- Wild oats plant response rating (wild oat; [4]): 7
- Plant response rating, Wild oats (wild oat; [5]): 0
- Nutsedge plant response rating (purple nutsedge; [1]): 0
- Nutsedge plant response rating (purple nutsedge; [6]): 0
- Plant response rating, Nutsedge (purple nutsedge; [7]): 0
- Nutsedge plant response rating (purple nutsedge; [2]): 0
- Nutsedge plant response rating (purple nutsedge; [3]): 0
- Nutsedge plant response rating (0 to 10 scale) (purple nutsedge; Preemergence, Rate 250 g/ha): 0
- Nutsedge plant response rating (purple nutsedge; [4]): 0
- Plant response rating, Nutsedge (purple nutsedge; [5]): 0
